This is an account of results in patent publication US6358984B1, “2,4-dioxopyrrolidine and 2,4-dioxotetrahydrofuran derivatives and medicines containing the same as the active ingredient” (Lead Chemical Co., Ltd., priority 1996, dated 2002).

Where two headings read alike, the source gives them in different places.

One data set deals with T1, angiotensin II receptor (Oryctolagus cuniculus, UniProt P34976).
T1 construct: fraction of angiotensin II receptor membrane ([…]) prepared from rabbit adrenal gland; from tissue; host or cells: rabbit adrenal gland membrane fraction
T1 sequence (P34976 1-359): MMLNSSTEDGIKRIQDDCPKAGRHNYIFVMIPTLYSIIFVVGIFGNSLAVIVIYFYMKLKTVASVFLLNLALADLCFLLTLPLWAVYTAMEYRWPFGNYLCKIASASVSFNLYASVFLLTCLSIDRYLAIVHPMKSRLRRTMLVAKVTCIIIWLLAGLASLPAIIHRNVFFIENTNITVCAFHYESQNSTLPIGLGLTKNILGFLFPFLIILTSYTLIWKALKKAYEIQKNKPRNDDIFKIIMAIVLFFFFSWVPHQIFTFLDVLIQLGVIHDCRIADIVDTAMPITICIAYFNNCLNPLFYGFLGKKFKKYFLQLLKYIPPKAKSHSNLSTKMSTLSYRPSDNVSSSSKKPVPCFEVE
Briefly: Binding inhibition of 3H labeled angiotensin II to angiotensin II receptor membrane fraction. The arrangement: species or system rabbit. Conditions: for IC50: rabbit adrenal gland membrane, 3H labeled angiotensin II 10^-9M, read-out: Receptor binding inhibition effect IC50. Here is the method:
The method of Cox et. al (Biochemical Pharmacology 33, 4057-4064 (1984) was modified to conduct angiotensin II receptor binding inhibition experiments. The present compounds (10^−5M to 10^−9M) and ^3H labeled angiotensin II (10^−9M) were added to a fraction of angiotensin II receptor membrane ([…]) prepared from rabbit adrenal gland and were allowed to react in a 20 mM Tris HCl buffer (pH: 7.0) containing 120 mM NaCl, 5 mM EDTA, 0.1 mM PMSF, and 0.2% BSA at 30° C. for 20 minutes so that the final volume was 540 μl. Then, the reaction mixture was quickly passed through a filter (whatman GF/B), and the filter was then rinsed three times in 4 ml of the buffer cooled in ice. Then, the radioactivity of receptor binding ^3H labeled angiotensin II captured on the filter was measured using a liquid scintillation counter. The angiotensin II receptor binding inhibition activity of the present compounds was evaluated based on the concentration (IC 50) required to replace 50% of the total amount of specifically binding ^3H labeled angiotensin II.

Another data set relates to male ICR mice. The data set is described as follows: Acute toxicity tests using male ICR mice. Conditions: 250, 500 and 1,000 mg/kg orally, dissected after 21 days. It counts as in vivo. The protocol: Acute toxicity tests of the compounds 1d and 2d described in table 1 were carried out. […] As a result, in each administration group, no mouse died whichever compound had been administered.

Another data set deals with aortae of guinea pigs. Briefly: Inhibition of vascular contraction caused by angiotensin II using pieces of the aortae of guinea pigs. It counts as cell-based. Conditions: Cavia porcellus; guinea pig chest aorta, contraction induced by angiotensin II; read-out: Vascular contraction inhibition effect IC50. Here is the method:
Male Hartly guinea pigs (350 to 400 g) were contused on the head and sacrificed by allowing their blood to discharge from the arteria carotis communis. Immediately after death, the chest aorta was removed. A spiral sample of width 2 to 3 mm and length 20 to 25 mm was cut from the aorta, and was suspended in 4.5 ml of Krebs-Henseleit (K-H) solution (120 mM NaCl, 4.7 mM KCl, […], 1.2 mM KH2PO4, 2.5 mM CaCl2, 25 mM NaHCO3, and 10 mM glucose) in a Magnus vessel. The K-H solution in the Magnus vessel was maintained at 37° C., and a mixture gas of 95% O2 and 5% CO2 was continuously bubbled through the solution. First, 1 g of initial tension was applied to the sample, which was then left to stand rest for about 30 minutes, and 45 μl of 4M KCl solution was added to the solution to induce contraction. After contraction had stabilized, a washing operation was performed to replace the K-H solution. Then, after the sample was left to stand for 30 minutes, 45 μl of solvent DMSO was added to incubate the sample for 15 minutes, and 45 μl of angiotensin II solution (3×10^−8M) was added to induce contraction. This operation was repeated three times and 100% contraction was used as the average. Subsequently, the sample was stabilized by washing. Then, a 45 μl sample of each test compound prepared for each concentration (3×10^−5M to 10^−7M) using DMSO as a solvent was used to observe the inhibition effect of angiotensin II on vascular contraction by performing the same operation as described above. The contraction reaction was recorded on a recorder (RTA-1100, Japan Photoelectronics) via an equi-scale pressure transducer (TB-651T, Japan Photoelectronics). The angiotensin II inhibition effects of the test compounds were evaluated using the IC50 value.

Data set [1] concerns hypertension caused by angiotensin II. Briefly: Inhibition effect in the hypertension caused by angiotensin II using rats. Conditions: Rattus norvegicus, iv, i. v., male SD rats, angiotensin II 100 ng/kg. It counts as in vivo, rat. The protocol:
Male SD rats (age; 11 weeks; 310 to 330 g) Were used, and indwelling cannula were placed in the femoral aorta and the vena cava, under anesthesia with inactin. The arterial cannula was connected to a pressure transducer to record the blood pressure via a carrier amplifier (AP-601G Japan Photoelectronics) using a polygraph system (RM-6000 Japan Photoelectronics). Prior to tests using the test compounds, 100 ng/kg-equivalent angiotensin II (50 μl of serum solution from the rat) was administered using a regular-pulse cannula to check the hypertensive action. Then, 30 minutes later, a 1 mg/kg-equivalent test compound (50 μl of serum solution from the rat) was administered using the regular-pulse cannula, and similar administration of angiotensin II was performed 5 and 60 minutes later to check the corresponding hypertensive action. The hypertensive effect resulting from the administration of only angiotensin II was taken as a reference value of 100% to determine the antihypertensive rates of the test compounds.

[2] abbreviates: 5 min, 5 minutes after administration, read-out: Inhibition effect in the hypertension by angiotensin II, 5 minutes after administration.
[3] abbreviates: 1 h, 60 minutes after administration, read-out: Inhibition effect in the hypertension by angiotensin II, 60 minutes after administration.

Usually IC50 stands for the concentration that gives 50% inhibition. On to `CCCCc1nc(CCCC)n(Cc2ccc(-c3ccccc3/C=C3\NC(=O)CC3=O)cc2)n1` [Compound 1d, 3,5-Dibutyl-1-[2′-[(2,4-dioxopyrrolidine-5(Z)-ylidene)methyl]biphenyl-4-yl]methyl-1H-1,2,4-triazole], for which, on angiotensin II receptor, the “Angiotensin II receptor antagonism (in words)” value is recorded as “distinct angiotensin II receptor antagonism”. Besides, the IC50 at angiotensin II receptor came out at 130 nM; in the data set with aortae of guinea pigs, 1400 nM. Besides, the “Findings on dissection at the end of the observation period” value in the data set with male ICR mice was “no abnormality”. The inhibition in vivo at 1 mg/kg was not below 70% in data set [1] (setting [2]) and 30 to 70% in data set [1] (setting [3]).
As a reminder, the melting point is the temperature, or range, at which the solid turns liquid. In the case of `CCCCc1nc(CCc2ccccc2)nn1Cc1ccc(-c2ccccc2/C=C2\NC(=O)CC2=O)cc1` [Compound 1f, 5-Butyl-3-(2-phenylethyl)-1-[2′-[(2,4-dioxopyrrolidine-5(Z)-ylidene)methyl]biphenyl-4-yl]methyl-1H-1,2,4-triazole], the melting point was in the range of 188 to 189 °C. Besides, the IC50 at angiotensin II receptor was determined as 150 nM. Further, the IC50 with aortae of guinea pigs was 87900 nM. In addition, the inhibition in vivo at 1 mg/kg in data set [1] (setting [2]) lay within 30 to 70%. Besides, in data set [1] (setting [3]), the inhibition in vivo at 1 mg/kg is 30 to 70%.
In the case of `CCCc1nc(CCC)n(Cc2ccc(-c3ccccc3/C=C3\OC(=O)C=C3O)cc2)n1` [Compound 2a, 3,5-Dipropyl-1-[2′-[(4-hydroxy-2(5H)-furanone-5(Z)-ylidene)methyl]biphenyl-4-yl]methyl-1H-1,2,4-triazole], the melting point lay in the range of 160 to 161 °C. Besides, the IC50 at angiotensin II receptor came out at 110 nM. Also, the concentration for half-maximal inhibition (IC50) in the data set on aortae of guinea pigs was determined as 16900 nM. Also, the inhibition in vivo at 1 mg/kg in data set [1] (setting [2]) fell in the range of 30 to 70%. The inhibition in vivo at 1 mg/kg in data set [1] (setting [3]) was less than 10%.
For `CCCCc1nc(C2CC2)nn1Cc1ccc(-c2ccccc2/C=C2\OC(=O)C=C2O)cc1` [Compound 2c, 5-Butyl-3-cyclopropyl-1-[2′-[(4-hydroxy-2(5H)-furanone-5(Z)-ylidene)methyl]biphenyl-4-yl]methyl-1H-1,2,4-triazole] the same measures were 168 to 170 °C, 150 nM, more than 300000 nM, 10 to 30% and less than 10%.
Take `CCCCc1nc(CCCC)n(Cc2ccc(-c3ccccc3/C=C3\OC(=O)C=C3O)cc2)n1` [Compound 2d]: the “Angiotensin II receptor antagonism (in words)” value at angiotensin II receptor is recorded as “distinct angiotensin II receptor antagonism”. Also, the half-inhibitory concentration (IC50) at angiotensin II receptor came out at 46 nM; with aortae of guinea pigs, 4500 nM. Further, the “Findings on dissection at the end of the observation period” value in the data set on male ICR mice is listed as “no abnormality”. In addition, the figures for the inhibition in vivo at 1 mg/kg in data set [1] (setting [2]) and in data set [1] (setting [3]) were 30 to 70% and 10 to 30%, respectively.
Take `CCCCc1nc(-c2ccccc2)nn1Cc1ccc(-c2ccccc2/C=C2\OC(=O)C=C2O)cc1` [Compound 2e, 5-Butyl-3-phenyl-1-[2′-[(4-hydroxy-2(5H)-furanone-5(Z)-ylidene)methyl]biphenyl-4-yl]methyl-1H-1,2,4-triazole]: the melting point was in the range of 188 to 189 °C. In addition, on angiotensin II receptor, the IC50 amounted to 180 nM. Besides, the half-maximal inhibitory concentration (IC50) in the data set on aortae of guinea pigs came to 154000 nM. Moreover, in data set [1] (setting [2]), the inhibition in vivo at 1 mg/kg is 30 to 70%. In addition, the inhibition in vivo at 1 mg/kg in data set [1] (setting [3]) lay in the range of 30 to 70%.
Regarding `CCCCc1nc(CCc2ccccc2)nn1Cc1ccc(-c2ccccc2/C=C2\OC(=O)C=C2O)cc1` [Compound 2f, 5-Butyl-3-(2-phenylethyl)-1-[2′-[(4-hydroxy-2(5H)-furanone-5(Z)-ylidene)methyl]biphenyl-4-yl]methyl-1H-1,2,4-triazole], the melting point lay within 184 to 185 °C. The IC50 at angiotensin II receptor was 11 nM. In addition, in the data set on aortae of guinea pigs, the half-maximal inhibitory concentration (IC50) is more than 300000 nM. In addition, the inhibition in vivo at 1 mg/kg in data set [1] (setting [2]) was 30 to 70%. In addition, in data set [1] (setting [3]), the inhibition in vivo at 1 mg/kg was less than 10%.
The matching figures for `CCCCc1nc(-c2ccco2)nn1Cc1ccc(-c2ccccc2/C=C2\OC(=O)C=C2O)cc1` [Compound 2j, 5-Butyl-(furan-2-yl)-1-[2′-[(4-hydroxy-2(5H)-furanone-5(Z)-ylidene)methyl]biphenyl-4-yl]methyl-1H-1,2,4-triazole]: 172 to 173 °C, 280 nM, more than 300000 nM, less than 10% and less than 10%.
`CCCCc1nc(-c2cccs2)nn1Cc1ccc(-c2ccccc2/C=C2\OC(=O)C=C2O)cc1` [Compound 2k, 5-Butyl-3-(thiophene-2-yl)-1-[2′-[(4-hydroxy-2(5H)-furanone-5(Z)-ylidene)methyl]biphenyl-4-yl]methyl-1H-1,2,4-triazole] displayed a melting point of 179 to 180 °C. Besides, the IC50 at angiotensin II receptor came out at 310 nM. Besides, the IC50 with aortae of guinea pigs was more than 300000 nM. Moreover, in data set [1] (setting [2]), the inhibition in vivo at 1 mg/kg fell in the range of 10 to 30%. The inhibition in vivo at 1 mg/kg in data set [1] (setting [3]) is less than 10%.
